Source: US20220152051A1, “APPLICATION OF GLYCOCHOLIC ACID IN PREPARATION OF ANTITUMOR DRUGS” (DALIAN UNIVERSITY, priority 2019, published 2022)

Tests used:
FXR protein expression = assay: Western blot of specific target protein expression in 4T1 cells; format: cell-based, mouse; conditions: 0.8 nmol/L, 12 h
Experimental: 2. After proteins of 4T1 cells intervened by glycocholic acid are extracted, by degeneration treatment, changes in the expression of the related proteins are measured according to the Western blot flow.

[1] = tested on: MCF-7 (human breast cancer cells); assay: In-vitro anti-tumor experiment (CCK-8), MCF-7 cells; format: cell-based
Experimental: (§1) 3.1 Cells at a logarithmic growth phase are collected, the concentration of the cells is respectively regulated into 5×10^4 cells/ml by the 1640 culture medium and the DMEM culture medium, and 100 μl of cell suspension is added into a 96-well plate. […] 3.3 Add CCK-8 reagent after 12 h, 24 h, 36 h, 48 h and 60 h, and incubate for 3 h, and after incubation is completed, the absorption value of each well is measured at OD450 nm of the microplate reader. […]

[2] = tested on: 4T1 mouse breast cancer cells; assay: Tumor inhibition rate by animal model (4T1 tumor-bearing BABL/c mice); format: in vivo; conditions: 15 mg/kg intragastric twice/day for two weeks, 4T1 tumor in BABL/c mice
Experimental: 1. Materials: 30 female 10-week-old BABL/c mice purchased from the SPF Experimental Animal Center of the Dalian Medical University; and 4T1 tumor cells purchased from the Shanghai Cell Bank of the Chinese Academy of Sciences. 2.1 Modeling: 4T1 mouse breast cancer cells at a logarithmic growth phase are collected, and the concentration of the cells is adjusted to 2×10^6 cells/ml with PBS; and 0.1 ml of cell suspension is injected under the right armpits of the mice by a sterile syringe. 2.2 Administration: intragastric administration of 15 mg/kg of glycocholic acid is started on the second day after modeling (twice/day), 0.2 mL each time, the equal volume of distilled water is administrated to the control group, and administration is continuously carried out for two weeks. The mice are fasted on the night of the last administration, the mice are sacrificed on the fifteenth day by a cervical dislocation method, tumor tissues under the armpits of the mice are aseptically stripped and weighed, and the tumor inhibition rate is calculated according to a formula of […]

FXR gene expression = assay: Real-time PCR of specific target RNA expression in 4T1 cells; format: cell-based, mouse; conditions: 0.8 nmol/L, 12 h, vs negative control
Experimental: 2. Method: RNA of the 4T1 cells intervened by glycocholic acid is extracted, and after reverse transcription, the Real-time RCP is carried out to measure the changes in the RNA expression of the specific target of glycocholic acid.

[3] = tested on: RL95-2 (human endometrial cancer cells); assay: In-vitro anti-tumor experiment (CCK-8), RL95-2 cells; format: cell-based
Experimental: as §1

[4] = tested on: MDA-MB-468 (human breast cancer cells); assay: In-vitro anti-tumor experiment (CCK-8), MDA-MB-468 cells; format: cell-based
Experimental: as §1

[5] = tested on: NIH:OVCAR-3 (human ovarian cancer cells); assay: In-vitro anti-tumor experiment (CCK-8), NIH:OVCAR-3 cells; format: cell-based
Experimental: as §1

[6] = tested on: 4T1 (mouse breast cancer cells); assay: In-vitro anti-tumor experiment (CCK-8), 4T1 cells; format: cell-based; conditions: for concentration at the highest point of the inhibition rate: 4T1 cells, highest inhibition rate at 12 h
Experimental: 3.1 Cells at a logarithmic growth phase are collected, the concentration of the cells is respectively regulated into 5×10^4 cells/ml by the 1640 culture medium and the DMEM culture medium, and 100 μl of cell suspension is added into a 96-well plate. 3.2 After culture is carried out for 24 h at the temperature of 37° C. at 5% CO2, the concentration gradient of glycocholic acid respectively of 0.1 nmol/L, 0.2 nmol/L, 0.4 nmol/L, 0.8 nmol/L, 1.6 nmol/L, 3.2 nmol/L and 6.4 nmol/L is added into 4T1 mouse breast cancer cells, the concentration gradient of glycocholic acid respectively of 0.02 μmol/L, 0.04 μmol/L, 0.08 μmol/L, 0.16 μmol/L, 0.32 μmol/L, 0.64 μmol/L and 1.28 μmol/L is added into MCF-7 cells, the concentration gradient of glycocholic acid respectively of 0.02 μmol/L, 0.04 μmol/L, 0.08 μmol/L, 0.16 μmol/L, 0.33 μmol/L, 0.66 μmol/L and 1.32 μmol/L is added into MDA-MB-468 cells, the concentration gradient of glycocholic acid respectively of 0.02 μmol/L, 0.04 μmol/L, 0.08 μmol/L, 0.16 μmol/L, 0.32 μmol/L, 0.64 μmol/L and 1.28 μmol/L is added into NIH:OVCAR-3 cells, the concentration gradient of glycocholic acid respectively of 0.02 μmol/L, 0.04 μmol/L, 0.08 μmol/L, 0.16 μmol/L, 0.32 μmol/L, 0.64 μmol/L and 1.28 μmol/L is added into RL-95-2 cells, set up five duplicated wells and meanwhile, set up a blank group and a control group. 3.3 Add CCK-8 reagent after 12 h, 24 h, 36 h, 48 h and 60 h, and incubate for 3 h, and after incubation is completed, the absorption value of each well is measured at OD450 nm of the microplate reader. 3.4 An inhibition rate of each concentration of glycocholic acid for tumor cells is obtained by utilizing a formula of 3.1 Cells at a logarithmic growth phase are collected, the concentration of the cells is regulated into 5×10^4 cells/ml by the 1640 culture medium, and 100 μl of cell suspension is added into a 96-well plate. […] 3.3 Add CCK-8 reagent after 12 h, 24 h, 36 h, 48 h and 60 h, incubate for 3 h, and after incubation is completed, the absorption value of each well is measured at OD450 nm of the microplate reader. […]

[7] = highest inhibition rate at 36 h

SMILES | expression of the specific target protein (FXR) in tumor cells (FXR protein expression) | IC50 ([1]; Homo sapiens, MCF7, CCK-8, 36 h) [nM] | concentration at the highest point of the inhibition rate [1, 7] [µmol/L] | average mouse tumor mass ([2]; day 15) [g] | tumor inhibition rate ([2]; vs control group) [%] | expression of related RNA (FXR gene) after intervention (FXR gene expression) [times] | IC50 ([3]; Homo sapiens, CCK-8, 36 h) [nM] | concentration at the highest point of the inhibition rate [3, 7] [µmol/L] | IC50 ([4]; Homo sapiens, CCK-8, 36 h) [nM] | concentration at the highest point of the inhibition rate [4, 7] [µmol/L] | IC50 ([5]; Homo sapiens, CCK-8, 48 h) [nM] | concentration at the highest point of the inhibition rate ([5]; highest inhibition rate at 48 h) [µmol/L] | concentration at the highest point of the inhibition rate [6] [nmol/L] | IC50 ([6]; 4T1 mouse breast cancer cells, CCK-8, 12 h) [nM]
C[C@H](CCC(=O)NCC(=O)O)[C@H]1CC[C@H]2[C@@H]3[C@H](O)C[C@@H]4C[C@H](O)CC[C@]4(C)[C@H]3C[C@H](O)[C@]12C [glycocholic acid] | increased | 640 to 1000 | 1.28 | 0.247 ± 0.08 | 42.83 | 1.5 | 320 to 640 | 1.28 | 330 to 660 | 1.32 | 160 to 320 | 1.28 | 0.8 | 0.01 to 0.1
C[C@H](CCC(=O)NCC(=O)[O-])[C@H]1CC[C@H]2[C@@H]3[C@H](O)C[C@@H]4C[C@H](O)CC[C@]4(C)[C@H]3C[C@H](O)[C@]12C.[Na+] [sodium glycocholate] | – | – | – | – | – | – | – | – | – | – | – | – | 0.7 | –
